# Like-named read-outs stand apart in the source and are kept apart here.
# T1: purine nucleoside phosphorylase (PNP) (Rattus norvegicus, UniProt P85973)
# T1 construct: Rat Erythrocytes; from tissue; host or cells: rat erythrocytes
# T1 sequence (P85973 1-289): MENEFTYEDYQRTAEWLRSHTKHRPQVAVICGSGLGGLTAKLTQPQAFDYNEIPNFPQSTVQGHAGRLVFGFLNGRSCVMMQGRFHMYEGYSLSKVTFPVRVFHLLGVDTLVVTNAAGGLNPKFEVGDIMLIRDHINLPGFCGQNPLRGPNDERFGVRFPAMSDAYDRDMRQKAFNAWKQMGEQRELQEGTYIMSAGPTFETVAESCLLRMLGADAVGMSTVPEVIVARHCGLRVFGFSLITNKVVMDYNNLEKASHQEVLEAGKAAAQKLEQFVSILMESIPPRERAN
# T2: purine nucleoside phosphorylase (PNP) (Bos taurus, UniProt P55859)
# T2 construct: Calf Spleen; from tissue; host or cells: calf spleen
# T2 sequence (P55859 1-289): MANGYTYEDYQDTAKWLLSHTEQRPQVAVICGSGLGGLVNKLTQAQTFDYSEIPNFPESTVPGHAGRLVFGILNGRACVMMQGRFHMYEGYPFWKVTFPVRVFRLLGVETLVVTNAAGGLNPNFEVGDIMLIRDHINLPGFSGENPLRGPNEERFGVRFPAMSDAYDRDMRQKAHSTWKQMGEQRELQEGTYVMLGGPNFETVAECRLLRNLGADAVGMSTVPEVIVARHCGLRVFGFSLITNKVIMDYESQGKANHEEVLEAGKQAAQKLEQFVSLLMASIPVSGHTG
# T3: purine nucleoside phosphorylase (PNP) (Homo sapiens, UniProt P00491)
# T3 construct: Human Erythrocytes; from tissue; host or cells: human erythrocytes
# T3 sequence (P00491 1-289): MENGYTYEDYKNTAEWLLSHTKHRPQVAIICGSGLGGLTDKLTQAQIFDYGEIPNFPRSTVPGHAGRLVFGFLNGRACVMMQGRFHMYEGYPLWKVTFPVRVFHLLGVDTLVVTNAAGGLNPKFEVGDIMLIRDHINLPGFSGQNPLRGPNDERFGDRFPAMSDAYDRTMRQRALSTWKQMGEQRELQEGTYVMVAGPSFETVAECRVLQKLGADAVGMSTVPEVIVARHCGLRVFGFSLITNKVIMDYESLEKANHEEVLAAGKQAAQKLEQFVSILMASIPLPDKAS
# Key:
# Type in all cases: biochemical
# [1] = molecular target: T1, purine nucleoside phosphorylase (PNP); assay: PNP inhibition, coupled xanthine oxidase method of Kalckar (rat erythrocyte PNP)
# [2] = molecular target: T2, purine nucleoside phosphorylase (PNP); assay: PNP inhibition, coupled xanthine oxidase method of Kalckar (calf spleen PNP)
# Description: (§1) Purine nucleoside phophorylase (PNP) inhibitory activity can be determined by the coupled xanthine oxidase method of Kalckar, using inosine as the substrate (H.M.Kalckar, J. Biol. Chem. 167, 429-443 (1947)). […] The Ki for representative members of the compounds of formula 1 are tabulated in table 1 and are compared to the KM values of the substrate inosine using PNP from various sources. […] The presence of 2'-deoxyguanosine (about 10 µM), a natural metabolite, appears to be important in in vitro activity.
# [3] = molecular target: T3, purine nucleoside phosphorylase (PNP); assay: PNP inhibition, coupled xanthine oxidase method of Kalckar (human erythrocyte PNP)
# [4] = substrate: OC[C@H]1O[C@@H](n2cnc3c(O)ncnc32)[C@H](O)[C@@H]1O; assay: PNP inhibition, coupled xanthine oxidase method of Kalckar (calf spleen PNP); settings: other: substrate KM for comparison; pH 7.4
# Description: as §1
# [5] = substrate: OC[C@H]1O[C@@H](n2cnc3c(O)ncnc32)[C@H](O)[C@@H]1O; assay: PNP inhibition, coupled xanthine oxidase method of Kalckar (rat erythrocyte PNP); settings: other: substrate KM for comparison; pH 7.4
# [6] = substrate: OC[C@H]1O[C@@H](n2cnc3c(O)ncnc32)[C@H](O)[C@@H]1O; assay: PNP inhibition, coupled xanthine oxidase method of Kalckar (human erythrocyte PNP); settings: other: substrate KM for comparison; pH 7.4
Molecule,Ki [1],Ki [2],Ki [3],other results
"Nc1nc2c(ncn2CCCCC(F)(F)P(=O)(O)O)c(=O)[nH]1 [9-(5-phosphono-5,5-difluoropentyl)guanine]",3.5e-08 M,–,–,–
"Nc1nc2c(ncn2CCCCCC(F)(F)P(=O)(O)O)c(=O)[nH]1 [9-(6-phosphono-6,6-difluorohexyl)guanine]",1.8e-07 M,3.2e-07 M,2.8e-07 M,–
"CCOP(=O)(O)C(F)(F)CCCCCCn1cnc2c(=O)[nH]c(N)nc21 [9-(7-phosphono-7,7-difluoroheptyl)guanine, ethyl ester]",2.8e-07 M,–,–,"Ki ([2]; apparent dissociation constant, 1 mM inorganic phosphate, 0.1 M HEPES buffer (pH 7.4), inosine 0.05 mM to 0.15 mM as substrate, read-out: Ki (M) PNP SOURCE Calf Spleen): 3.3e-06 M; Ki ([3]; apparent dissociation constant, 1 mM inorganic phosphate, 0.1 M HEPES buffer (pH 7.4), inosine 0.05 mM to 0.15 mM as substrate, read-out: Ki (M) PNP SOURCE Human Erythrocytes): 8e-07 M"
"Nc1nc2c(ncn2CCCCCCC(F)(F)P(=O)(O)O)c(=O)[nH]1 [9-(7-phosphono-7,7-difluoroheptyl)guanine]",9.6e-09 M,1.5e-07 M,8e-08 M,–
"O=c1[nH]cnc2c1ncn2CCCCCCC(F)(F)P(=O)(O)O [9-(7-phosphono-7,7-difluoroheptyl)hypoxanthine]",1.6e-07 M,2.2e-06 M,1e-07 M,–
Nc1nc(O)c2ncn(CCCCCCCP(=O)(O)O)c2n1 [9-(7-phosphono-heptyl)guanine],–,1.2e-06 M,6.8e-07 M,"Ki ([1]; apparent dissociation constant, 1 mM inorganic phosphate, 0.1 M HEPES buffer (pH 7.4), inosine 0.05 mM to 0.15 mM as substrate, read-out: Ki (M) PNP SOURCE Rat Erythrocytes): 7.5e-08 M"
"Nc1nc2c(ncn2CCCCCCCC(F)(F)P(=O)(O)O)c(=O)[nH]1 [9-(8-phosphono-8,8-difluorooctyl)guanine]",4.6e-09 M,6.2e-07 M,1.9e-07 M,–
"purine nucleoside phosphorylase (PNP) (Bos taurus) (protein, Calf Spleen; from tissue; host or cells: calf spleen) MANGYTYEDYQDTAKWLLSHTEQRPQVAVICGSGLGGLVNKLTQAQTFDYSEIPNFPESTVPGHAGRLVFGILNGRACVMMQGRFHMYEGYPFWKVTFPVRVFRLLGVETLVVTNAAGGLNPNFEVGDIMLIRDHINLPGFSGENPLRGPNEERFGVRFPAMSDAYDRDMRQKAHSTWKQMGEQRELQEGTYVMLGGPNFETVAECRLLRNLGADAVGMSTVPEVIVARHCGLRVFGFSLITNKVIMDYESQGKANHEEVLEAGKQAAQKLEQFVSLLMASIPVSGHTG",–,–,–,Km [4]: 28 x 10⁻⁶ M
"purine nucleoside phosphorylase (PNP) (Rattus norvegicus) (protein, Rat Erythrocytes; from tissue; host or cells: rat erythrocytes) MENEFTYEDYQRTAEWLRSHTKHRPQVAVICGSGLGGLTAKLTQPQAFDYNEIPNFPQSTVQGHAGRLVFGFLNGRSCVMMQGRFHMYEGYSLSKVTFPVRVFHLLGVDTLVVTNAAGGLNPKFEVGDIMLIRDHINLPGFCGQNPLRGPNDERFGVRFPAMSDAYDRDMRQKAFNAWKQMGEQRELQEGTYIMSAGPTFETVAESCLLRMLGADAVGMSTVPEVIVARHCGLRVFGFSLITNKVVMDYNNLEKASHQEVLEAGKAAAQKLEQFVSILMESIPPRERAN",–,–,–,Km [5]: 80 x 10⁻⁶ M
"purine nucleoside phosphorylase (PNP) (Homo sapiens) (protein, Human Erythrocytes; from tissue; host or cells: human erythrocytes) MENGYTYEDYKNTAEWLLSHTKHRPQVAIICGSGLGGLTDKLTQAQIFDYGEIPNFPRSTVPGHAGRLVFGFLNGRACVMMQGRFHMYEGYPLWKVTFPVRVFHLLGVDTLVVTNAAGGLNPKFEVGDIMLIRDHINLPGFSGQNPLRGPNDERFGDRFPAMSDAYDRTMRQRALSTWKQMGEQRELQEGTYVMVAGPSFETVAECRVLQKLGADAVGMSTVPEVIVARHCGLRVFGFSLITNKVIMDYESLEKANHEEVLAAGKQAAQKLEQFVSILMASIPLPDKAS",–,–,–,Km [6]: 70 x 10⁻⁶ M

# Source: patent EP0338887B1, “Phosphonoalkylpurine derivatives” (MERRELL DOW PHARMACEUTICALS INC., priority 1988, dated 1989)
